Source: patent publication US5061794A, “Cephalosporin derivatives, and antibacterial agents” (priority 1986, dated 1991)
Where a name gives a salt, the structure may show the parent alone. Read-outs that look alike come from different tables or passages of the source.

Tests used:
E. coli CSH(RE45) = test: microbe, parasite or virus in culture; type: cell-based; details: 10^6 CFU/ml; for MIC: Escherichia coli, 16 h, read-out: Minimum Inhibitory Concentration (MIC), *E. coli CSH(RE45), lactamase-producing strain
Procedure, shortened: (§1)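 MICs (μg/ml) were read after 16 hours at 37°C. Test strains, grown overnight in Mueller Hinton broth, were spotted at 10^6 CFU/ml onto Mueller Hinton agar plates containing the compounds at a range of concentrations.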

E. coli CSH2 (RK1) = test: microbe, parasite or virus in culture; type: cell-based; details: 10^6 CFU/ml; for MIC: Escherichia coli, 16 h, read-out: Minimum Inhibitory Concentration (MIC), *E. coli CSH2 (RK1), lactamase-producing strain
Procedure, shortened: as §1

E. cloacae 963 = test: in vitro antibacterial activity, agar plate dilution method (MIC); type: cell-based; details: 10^6 CFU/ml
Procedure, shortened: as §1

E. cloacae Nek 39 = test: as above; type: cell-based; details: Enterobacter cloacae, NEK39, 16 h, 10^6 CFU/ml
Procedure, shortened: as §1

E. coli GN5482 = test: as above; type: cell-based; details: Escherichia coli, GN5482, 16 h
Procedure, shortened: as §1

E. coli NIHJ JC2 = test: as above; type: cell-based; details: Escherichia coli, NIHJJC2, 16 h, read-out: Minimum Inhibitory Concentration (MIC), E. coli NIHJ JC2, 10^6 CFU/ml, 37° C.
Procedure, shortened: as §1

K. oxytoca GN10650 = test: as above; type: cell-based; details: Klebsiella oxytoca, 10^6 CFU/ml
Procedure, shortened: as §1

K. pneumoniae No. 42 = test: as above; type: cell-based; details: Klebsiella pneumoniae, 10^6 CFU/ml
Procedure, shortened: as §1

K. pneumoniae PCI-602 = test: as above; type: cell-based; details: Klebsiella pneumoniae, PCI602, 16 h, 10^6 CFU/ml
Procedure, shortened: as §1

M. morganii GN5407 = test: as above; type: cell-based; details: 10^6 CFU/ml; for MIC: Morganella morganii, GN5407, 16 h, read-out: Minimum Inhibitory Concentration (MIC), *M. morganii GN5407, lactamase-producing strain
Procedure, shortened: as §1

P. vulgaris HX-19 = test: as above; type: cell-based; details: P. vulgaris HX-19, 10^6 CFU/ml; for MIC: Proteus vulgaris, HX19, 16 h, read-out: Minimum Inhibitory Concentration (MIC)
Procedure, shortened: as §1

P. vulgaris No. 33 = test: as above; type: cell-based; details: 10^6 CFU/ml; for MIC: Proteus vulgaris, NO.33, 16 h, read-out: Minimum Inhibitory Concentration (MIC), *P. vulgaris No. 33, lactamase-producing strain
Procedure, shortened: as §1

S. aureus 209P NIHJ-JC1 = test: as above; type: cell-based; details: Staphylococcus aureus, 16 h
Procedure, shortened: as §1

S. marcescens IAM 1184 = test: as above; type: cell-based; details: Serratia marcescens, IAM1184, 16 h, read-out: Minimum Inhibitory Concentration (MIC)
Procedure, shortened: as §1

S. marcescens No. 16-2 = test: as above; type: cell-based; details: Serratia marcescens, NO.162, 16 h
Procedure, shortened: as §1

Ps. aeruginosa AK 109 = test: as above; type: cell-based, Pseudomonas aeruginosa; details: Pseudomonas aeruginosa, AK109, 16 h, read-out: Minimum Inhibitory Concentration (MIC)
Procedure, shortened: as §1

Ps. aeruginosa AKR17 = test: as above; type: cell-based, Pseudomonas aeruginosa; details: Pseudomonas aeruginosa, 10^6 CFU/ml
Procedure, shortened: as §1

Ps. aeruginosa IF03445 = test: as above; type: cell-based, Pseudomonas aeruginosa; details: Pseudomonas aeruginosa, 10^6 CFU/ml
Procedure, shortened: as §1

Ps. cepacia 23 = test: as above; type: cell-based, Pseudomonas cepacia; details: read-out: Minimum Inhibitory Concentration (MIC)
Procedure, shortened: as §1

A. calcoaceticus No. 4 = test: as above; type: cell-based, Acinetobacter calcoaceticus; details: Acinetobacter calcoaceticus, NO.4, 16 h, 10^6 CFU/ml
Procedure, shortened: as §1

[1] = Enterobacter cloacae, 963, 16 h, read-out: Minimum Inhibitory Concentration (MIC), E. cloacae 963
[2] = read-out: Minimum Inhibitory Concentration (MIC)
[3] = NO.42, 16 h, read-out: Minimum Inhibitory Concentration (MIC), *K. pneumoniae No. 42, lactamase-producing strain
[4] = Ps. aeruginosa AK 109, 10^6 CFU/ml
[5] = 16 h, Ps. aeruginosa AKR17, read-out: Minimum Inhibitory Concentration (MIC)
[6] = A. calcoaceticus No. 4, read-out: Minimum Inhibitory Concentration (MIC)
[7] = read-out: Minimum Inhibitory Concentration (MIC), *E. cloacae Nek 39, lactamase-producing strain
[8] = GN10650, 16 h, read-out: Minimum Inhibitory Concentration (MIC), *K. oxytoca GN10650, lactamase-producing strain
[9] = read-out: Minimum Inhibitory Concentration (MIC), K. pneumoniae PCI-602
[10] = IF03445, 16 h, read-out: Minimum Inhibitory Concentration (MIC), Ps. aeruginosa IF03445
[11] = read-out: Minimum Inhibitory Concentration (MIC), A. calcoaceticus No. 4
[12] = S. marcescens IAM 1184, 10^6 CFU/ml
[13] = Burkholderia cepacia, 16 h, Ps. cepacia 23, 10^6 CFU/ml

Compound | MIC (E. coli CSH(RE45)) [µg/mL] | MIC (E. coli CSH2 (RK1)) [µg/mL] | MIC (E. cloacae 963; [1]) [µg/mL] | MIC (E. coli GN5482; [2]) [µg/mL] | MIC (E. coli NIHJ JC2) [µg/mL] | MIC (K. pneumoniae No. 42; [3]) [µg/mL] | MIC (M. morganii GN5407) [µg/mL] | MIC (P. vulgaris HX-19) [µg/mL] | MIC (P. vulgaris No. 33) [µg/mL] | MIC (S. aureus 209P NIHJ-JC1; [2]) [µg/mL] | MIC (S. marcescens IAM 1184) [µg/mL] | MIC (Ps. aeruginosa AK 109; [4]) [µg/mL] | MIC (Ps. aeruginosa AKR17; [5]) [µg/mL] | MIC (Ps. cepacia 23; Burkholderia cepacia, 23, 16 h) [µg/mL] | MIC (A. calcoaceticus No. 4; [6]) [µg/mL] | MIC (E. cloacae Nek 39; [7]) [µg/mL] | MIC (K. oxytoca GN10650; [8]) [µg/mL] | MIC (K. pneumoniae PCI-602; [9]) [µg/mL] | MIC (S. marcescens No. 16-2; [2]) [µg/mL] | MIC (Ps. aeruginosa IF03445; [10]) [µg/mL] | also measured
CO/N=C(\C(=O)N[C@@H]1C(=O)N2C(C(=O)O)=C(CSc3nc(-c4ccc(OC)c(OC)c4)cs3)CS[C@H]12)c1csc(N)n1 [compound 13, trifluoroacetate, reference compound] | 6.25 | 1.56 | 12.5 | 3.12 | 6.25 | 6.25 | 6.25 | 0.05 | 3.12 | 0.39 | 3.12 | 100 | > 100 | 12.5 | 100 | – | – | – | – | – | MIC (E. cloacae Nek 39; *E. cloacae Nek 39, lactamase-producing strain, read-out: Minimum Inhibitory Concentration (MIC)): 25 µg/mL; MIC (K. oxytoca GN10650; 16 h, *K. oxytoca GN10650, lactamase-producing strain, read-out: Minimum Inhibitory Concentration (MIC)): 25 µg/mL; MIC (K. pneumoniae PCI-602; K. pneumoniae PCI-602, read-out: Minimum Inhibitory Concentration (MIC)): 0.05 µg/mL; MIC (S. marcescens No. 16-2; *S. marcescens No. 16-2, lactamase-producing strain, 10^6 CFU/ml, read-out: Minimum Inhibitory Concentration (MIC)): 50 µg/mL; MIC (Ps. aeruginosa IF03445; 16 h, Ps. aeruginosa IF03445, read-out: Minimum Inhibitory Concentration (MIC)): > 100 µg/mL
CO/N=C(\C(=O)N[C@@H]1C(=O)N2C(C(=O)O)=C(CSc3nc(-c4ccc(O)cc4)cs3)CS[C@H]12)c1csc(N)n1 [compound 10, sodium 7β-[2-(2-aminothiazol-4-yl)-2-methoxyiminoacetamido]-3-[4-(4-hydroxyphenyl)thiazol-2-yl]thiomethyl-3-cephem-4-carboxylate, reference compound] | 0.78 | 0.39 | 1.56 | 0.39 | 0.78 | 1.56 | 0.78 | < 0.006 | 0.78 | – | 0.78 | – | > 100 | 3.12 | 50 | 3.12 | 3.12 | < 0.006 | 3.12 | 6.25 | MIC (S. aureus 209P NIHJ-JC1; S. aureus 209P NIHJ-JC1, 10^6 CFU/ml, 37° C., 16 hours, read-out: Minimum Inhibitory Concentration (MIC)): 0.2 µg/mL; MIC (Ps. aeruginosa AK 109): 12.5 µg/mL
C#CCO/N=C(\C(=O)N[C@@H]1C(=O)N2C(C(=O)O)=C(CSc3nnc(-c4ccc(O)c(O)c4)s3)CS[C@H]12)c1csc(N)n1 [Ex. 31, sodium 7β-[2-(2-aminothiazol-4-yl)-2-proparqyloxyiminoacetamido]-3-[5-(3,4-dihvdroxyphenyl)-1,3,4-thiadiazol-2-yl]thiomethyl-3-cephem-4-carboxylate] | 0.0125 | < 0.006 | 0.0125 | 0.39 | 0.1 | – | 0.0125 | < 0.006 | 0.025 | – | 0.0125 | 0.2 | 100 | 0.0125 | – | 0.2 | 0.78 | < 0.006 | 0.39 | 0.78 | MIC (K. pneumoniae No. 42; 16 h, *K. pneumoniae No. 42, lactamase-producing strain, read-out: Minimum Inhibitory Concentration (MIC)): < 0.006 µg/mL; MIC (S. aureus 209P NIHJ-JC1; read-out: Minimum Inhibitory Concentration (MIC), S. aureus 209P NIHJ-JC1, 10^6 CFU/ml, 37° C., 16 hours): 0.78 µg/mL; MIC (A. calcoaceticus No. 4; [11]): 0.1 µg/mL
Nc1nc(/C(=N/OCc2ccccc2)C(=O)N[C@@H]2C(=O)N3C(C(=O)O)=C(CSc4nnc(-c5ccc(O)c(O)c5)s4)CS[C@H]23)cs1 [Ex. 32, 7β-[2-(2-aminothiazol-4-yl)-2-benzyloxviminoacetamido]-3-[5-(3,4-dihydroxvphenvl)-1,3,4-thiadiazol-2-yl]thiomethyl-3-cephem-4-carboxylic acid trifluoroacetate] | 1.56 | < 0.006 | – | – | 0.39 | 0.0125 | 0.1 | 0.0125 | 0.2 | 0.39 | – | – | > 100 | – | – | 0.2 | 0.39 | < 0.006 | 12.5 | 0.78 | MIC (E. cloacae 963; Enterobacter cloacae, 16 h, E. cloacae 963, read-out: Minimum Inhibitory Concentration (MIC)): 0.1 µg/mL; MIC (E. coli GN5482; read-out: Minimum Inhibitory Concentration (MIC), *E. coli GN5482, lactamase-producing strain, 10^6 CFU/ml): 0.78 µg/mL; MIC (S. marcescens IAM 1184; [12]): 0.025 µg/mL; MIC (Ps. aeruginosa AK 109): 0.39 µg/mL; MIC (Ps. cepacia 23; [13]): < 0.006 µg/mL; MIC (A. calcoaceticus No. 4; [11]): 0.39 µg/mL
Nc1nc(/C(=N/OC(C(=O)O)c2ccccc2)C(=O)N[C@@H]2C(=O)N3C(C(=O)O)=C(CSc4nnc(-c5ccc(O)c(O)c5)o4)CS[C@H]23)cs1 (single isomer, unassigned) [Example 24 DA, disodium 78-[2-(2-aminothiazol-4-yl)-2-(α-carboxylatebenzyloxyimino)acetamido]-3-[5-(3,4-dihydroxyphenyl)-1,3,4-oxadiazol-2-yl]-thiomethyl-3-cephem-4-carboxylate] | – | – | 0.05 | 0.39 | 0.2 | 0.0125 | – | – | – | 12.5 | – | 0.1 | – | – | 0.05 | 0.025 | 0.0125 | < 0.006 | – | 0.78 | Minimum Inhibitory Concentration (MIC) (E. coli CSH(RE45); *E. coli CSH(RE45), lactamase-producing strain): < 0.006 µg/mL; Minimum Inhibitory Concentration (MIC) (E. coli CSH2 (RK1); *E. coli CSH2 (RK1), lactamase-producing strain): < 0.006 µg/mL; Minimum Inhibitory Concentration (MIC) (M. morganii GN5407; *M. morganii GN5407, lactamase-producing strain): 0.025 µg/mL; Minimum Inhibitory Concentration (MIC) (P. vulgaris HX-19): < 0.006 µg/mL; Minimum Inhibitory Concentration (MIC) (P. vulgaris No. 33; *P. vulgaris No. 33, lactamase-producing strain): 0.0125 µg/mL; MIC (S. marcescens IAM 1184; [12]): 0.025 µg/mL; MIC (S. marcescens No. 16-2; read-out: Minimum Inhibitory Concentration (MIC), *S. marcescens No. 16-2, lactamase-producing strain, 10^6 CFU/ml): 0.78 µg/mL; MIC (Ps. aeruginosa AKR17; AKR17, 16 h, read-out: Minimum Inhibitory Concentration (MIC), Ps. aeruginosa AKR17): 0.78 µg/mL; MIC (Ps. cepacia 23; [13]): < 0.006 µg/mL
